Laboratory results published in ChEMBL document CHEMBL1133316, “Synthesis and antiviral activity of acyclovir-5'-(phenyl methoxy alaninyl) phosphate as a possible membrane-soluble nucleotide prodrug” (Bioorg Med Chem Lett, 2000).

Experiments:
MRC5 [1] = experiment: Compound was tested for inhibition against human cytomegalovirus (HCMV) in MRC-5 cells; format: functional, cell-based
MRC5 [2] = experiment: Compound was tested for inhibition against Varicella zoster virus(VZV) infected MRC5 cells; format: functional, cell-based; details: Homo sapiens
Vero [3] = experiment: Compound was tested for inhibition against herpes simplex virus (HSV-2) infected vero cells; format: functional, cell-based; details: Chlorocebus sabaeus
Vero [4] = experiment: Compound was tested for cytotoxic activity uninfected vero cells; format: functional; details: Chlorocebus sabaeus
MRC5 [5] = experiment: Compound was tested for inhibition against varicella zoster virus(VZV) infected MRC5 cells; details: Homo sapiens

Row | SMILES | EC50 (MRC5 [1]) | EC50 (MRC5 [2]) | EC50 (Vero [3]) | CC50 (Vero [4]) | EC50 (MRC5 [5])
1 | COC(=O)C(C)NP(=O)(OCCOCn1cnc2c(O)nc(N)nc21)Oc1ccccc1 (stereo not drawn) | 12 µM | 16 µM | > 100 µM | > 5 µM | –
2 | Nc1nc2c(ncn2COCCO)c(=O)[nH]1 [ACYCLOVIR] | 50 µM | – | 3 µM | > 5 µM | 5 µM
